Source: patent US5229419A, “Chemotherapeutically active acetogenins” (Purdue Research Foundation, priority 1992, dated 1993)
In brackets after ≈: the same amount, converted by molar mass.

Columns and labels:
[1] = test system: two-spotted spider mite (2SSM) Tetranychus urticae; type: in vivo; details: at 10 ppm
Protocol: (§1) Pesticidal bioassays were conducted at Eli Lilly Laboratories (Greenfield, Ind.) following standard procedures with eight indicator organisms: mosquito larvae (ML) Aedes aegypti (in the media), blowfly larvae (BFL) (1% in the diet), corn root worm (CRW) Diabrotics undecimcuntata howardii (in soil), two-spotted spider mite (2SSM) Tetranychus urticae (on foliage), southern army worm (SAW) Spodoptera eridania (on foliage), melon aphid (MA) (5000 ppm on foliage), cotton aphid (CA) Aphis gossypii, (on foliage) and Haemonchus contortus (HC) (a nematode, 0.1% in the media).
(§2) Pesticidal bioassays on initial fractions were conducted at Eli Lilly Laboratories (Greenfield, Ind.) following standard procedures with seven indicator organisms: mosquito larvae (ML), blow fly larvae (BFL), corn root worm (CRW), two-spotted spider mite (2SSM), southern army worm (SAW), melon aphid (MA), and Haemonchus contortus (HC).

[2] = test system: corn root worm (CRW) Diabrotics undecimcuntata howardii; type: in vivo; details: at 24 ppm
Protocol: as §1, §2

H23 = assay: NCI in vitro cytotoxicity, non-small cell lung cancer; type: cell-based; details: Homo sapiens
H125 = assay: as above; type: cell-based; details: Homo sapiens
A2780 = assay: NCI in vitro cytotoxicity, ovarian cancer; type: cell-based; details: Homo sapiens
H460 = assay: NCI in vitro cytotoxicity, non-small cell lung cancer; type: cell-based; details: Homo sapiens
[3] = test system: cotton aphid (CA) Aphis gossypii; assay: pesticidal bioassay, cotton aphid (CA); type: in vivo; details: at 1 ppm
Protocol: as §1

P388 = assay: NCI in vitro cytotoxicity, leukemia; type: cell-based; details: Mus musculus
EKV-X = assay: NCI in vitro cytotoxicity, non-small cell lung cancer; type: cell-based; details: Homo sapiens, EKVX
U251 = assay: NCI in vitro cytotoxicity, CNS cancer; type: cell-based; details: Homo sapiens, U-251
H82 = assay: NCI in vitro cytotoxicity, small cell lung cancer; type: cell-based; details: Homo sapiens
[4] = test system: 9KB (human nasopharyngeal carcinoma); assay: 9KB cytotoxicity; type: cell-based
Protocol: Occasional checks in the potato disc (PD) assay assured us that antitumor activity was present [Ferrigni et al., J. Nat. Prod., 45; 679-686 (1982)]. Cytotoxicity tests were performed at the Purdue Cell Culture Laboratory, Purdue Cancer Center, using standard protocols for 9KB (human nasopharyngeal carcinoma) and 9PS (a chemically-induced murine lymphocytic leukemia) [Suffness et al., Methods In Cancer Research. Vol. 16: 73 (1979), V. T. DeVita, Jr. and H. Busch eds., Academic Press, New York], 9ASK (astrocytoma reversal) [Lgarashi et al., Cell Struct. and Funct., 3: 107 (1978)], A-549 (human lung carcinoma) [Giard et al., J. Nat. Cancer Inst., 51: 1417-1423 (1973)], and HT-29 (human colon adenocarcinoma) [Fogh J. (ed.), Human Tumor Cells, In Vitro, Plenum Press, New York: 115-159 (1975)].
Anticancer activity is a potential use even for the crude extract. The bioassay results for the lethality of brine shrimp (BST), the inhibition of crown gall tumors on potato discs (PD), the reversal in morphology of db-cAMP induced AC glioma cells from that of mature, differentiated astrocytes to that of immature AC glioma cells (mouse brain cells) (9ASK), the dose that inhibits cell growth to one-half that of untreated poorly differentiated human epidermic carcinoma (9KB), the dose that inhibits cell growth to one-half that of a methylcholanthrene-induced lymphoid neoplasm in a DBA/2 mouse (9PS), and the percent displacement in a protein kinase C test for initial extract fractions are shown in Table 1. Obviously, the bioactivity is concentrated in F005.

SK-MEL5 = assay: NCI in vitro cytotoxicity, melanoma; type: cell-based; details: Homo sapiens, SK-MEL-5
CCRF-CEM = assay: NCI in vitro cytotoxicity, leukemia; type: cell-based; details: Homo sapiens
OVCAR-5 = assay: NCI in vitro cytotoxicity, ovarian cancer; type: cell-based; details: Homo sapiens
RPMI-7951 = assay: NCI in vitro cytotoxicity, melanoma; type: cell-based; details: Homo sapiens
TE-671 = assay: NCI in vitro cytotoxicity, CNS cancer; type: cell-based; details: Homo sapiens
protein tyrosine kinase = protein tyrosine kinase test; type: biochemical
DLD-1 = assay: NCI in vitro cytotoxicity, colon cancer; type: cell-based; details: Homo sapiens
HOP-62 = assay: NCI in vitro cytotoxicity, non-small cell lung cancer; type: cell-based; details: Homo sapiens
H524 = assay: NCI in vitro cytotoxicity, small cell lung cancer; type: cell-based; details: Homo sapiens
MCF7 = assay: NCI in vitro cytotoxicity, breast cancer; type: cell-based; details: Homo sapiens
OVCAR-8 = assay: NCI in vitro cytotoxicity, ovarian cancer; type: cell-based; details: Homo sapiens

## CCCCCCCCCCC(O)C1CCC(C2CCC(C(O)CCCCCCCCCCC(O)CC3=CC(C)OC3=O)O2)O1 (centres unmarked) [Bullatacin]
[1]
  toxicity to two-spotted spider mites: significantly toxic
[2]
  toxicity to southern corn rootworm: significantly toxic
H23
  IC50: 2.38 µg/mL (≈ 3.82 µM)
  IC90: 9.21 µg/mL (≈ 14.8 µM)
H125
  IC50: 2.4 µg/mL (≈ 3.85 µM)
  IC90: > 9.26 µg/mL
A2780
  IC50: 0.0377 ng/mL (≈ 6.05e-05 µM)
  IC90: 0.00065 µg/mL (≈ 0.00104 µM)
H460
  IC50: 0.0287 ng/mL (≈ 4.61e-05 µM)
  IC90: 0.000185 µg/mL (≈ 0.000297 µM)
[3]
  toxicity to cotton aphids: significantly toxic
P388
  IC50: > 0.0924 µg/mL
  IC90: > 0.0924 µg/mL
EKV-X
  IC50: 0.000115 µg/mL (≈ 0.000185 µM)
  IC90: > 0.0926 µg/mL
U251
  IC50: < 0.00924 ng/mL
  IC90: 0.0437 ng/mL (≈ 7.02e-05 µM)
H82
  IC50: 1.99 µg/mL (≈ 3.19 µM)
  IC90: 7.14 µg/mL (≈ 11.5 µM)
[4]
  9KB ED50: 6.188e-11 ng/mL
SK-MEL5
  IC50: > 0.000926 µg/mL
  IC90: 5.22 µg/mL (≈ 8.38 µM)
CCRF-CEM
  IC50: 0.0894 ng/mL (≈ 0.000144 µM)
  IC90: 0.0694 µg/mL (≈ 0.111 µM)
OVCAR-5
  IC50: 8.8 µg/mL (≈ 14.1 µM)
  IC90: > 9.26 µg/mL
RPMI-7951
  IC50: 2.73 µg/mL (≈ 4.38 µM)
  IC90: 7.71 µg/mL (≈ 12.4 µM)
TE-671
  IC50: 0.0256 ng/mL (≈ 4.11e-05 µM)
  IC90: 0.00274 µg/mL (≈ 0.0044 µM)
Protein tyrosine kinase
  result in the protein tyrosine kinase test: negative result
DLD-1
  IC50: 2.76 µg/mL (≈ 4.43 µM)
  IC90: 8.62 µg/mL (≈ 13.8 µM)
HOP-62
  IC50: < 0.000926 µg/mL
  IC90: 5.13 µg/mL (≈ 8.24 µM)
H524
  IC50: 2.69 µg/mL (≈ 4.32 µM)
  IC90: 7.54 µg/mL (≈ 12.1 µM)
MCF7
  IC50: > 0.0924 µg/mL
  IC90: > 0.0924 µg/mL
OVCAR-8
  IC50: 2.57 µg/mL (≈ 4.13 µM)
  IC90: 7.65 µg/mL (≈ 12.3 µM)
